Species: Rattus norvegicus
Test: Open TG-GATES - Regimen: Daily Repeat
Format: toxicity, organism-based, Sprague-Dawley
Set-up: regimen Daily Repeat, gender Male, age 6 weeks
Details: in vivo, po, 120 mg/kg, route gavage, dose level Middle; for APTT / Bas / Eos / Fbg / Hb / Ht / Lym / MCH / MCHC / MCV / Mono / Neu / PT / Plat / RBC / Ret / WBC: tissue Blood; for KIDNEY_L / KIDNEY_R / KIDNEY_TOTAL: tissue Kidney; for LIVER: tissue Liver; for A/G / ALP / ALT / AST / BUN / CRE / Ca / Cl / DBIL / GLC / IP / K / LDH / Na / PL / RALB / TBIL / TC / TG / TP / gamma-GTP: tissue Plasma

COc1ccc(Cc2nccc3cc(OC)c(OC)cc23)cc1OC [PAPAVERINE]
TERMINAL_BW (72 h, time 3 day): 245.2 g
APTT (72 h, time 3 day): 22.2 s
Bas (72 h, time 3 day): 0%
Eos (72 h, time 3 day): 1%
Fbg (72 h, time 3 day): 316.2 mg/dL
Hb (72 h, time 3 day): 13.6 g/dL
Ht (72 h, time 3 day): 40.6%
Lym (72 h, time 3 day): 77.8%
MCH (72 h, time 3 day): 20.8 pg
MCHC (72 h, time 3 day): 33.5%
MCV (72 h, time 3 day): 62.1 fL
Mono (72 h, time 3 day): 2.6%
Neu (72 h, time 3 day): 17.8%
PT (72 h, time 3 day): 15.3 s
Plat (72 h, time 3 day): 116.6 x10_4/uL
RBC (72 h, time 3 day): 654.2 x10_4/ul
Ret (72 h, time 3 day): 6.2%
WBC (72 h, time 3 day): 84.6 x10_2/uL
KIDNEY_L (72 h, time 3 day): 1 g
KIDNEY_R (72 h, time 3 day): 1 g
KIDNEY_TOTAL (72 h, time 3 day): 2 g
LIVER (72 h, time 3 day): 11.7 g
A/G (72 h, time 3 day): 1.2
ALP (72 h, time 3 day): 1731.2 IU/L
ALT (72 h, time 3 day): 43 IU/L
AST (72 h, time 3 day): 72 IU/L
BUN (72 h, time 3 day): 15.8 mg/dL
CRE (72 h, time 3 day): 0.2 mg/dL
Ca (72 h, time 3 day): 10.9 mg/dL
Cl (72 h, time 3 day): 106.8 meq/L
DBIL (72 h, time 3 day): 0 mg/dL
GLC (72 h, time 3 day): 195.8 mg/dL
IP (72 h, time 3 day): 7.3 mg/dL
K (72 h, time 3 day): 4.3 meq/L
LDH (72 h, time 3 day): 179.2 IU/L
Na (72 h, time 3 day): 142.6 meq/L
PL (72 h, time 3 day): 144 mg/dL
RALB (72 h, time 3 day): 3.1 g/dL
TBIL (72 h, time 3 day): 0.006 mg/dL
TC (72 h, time 3 day): 77.2 mg/dL
TG (72 h, time 3 day): 98.6 mg/dL
TP (72 h, time 3 day): 5.7 g/dL
gamma-GTP (72 h, time 3 day): 1.2 IU/L
TERMINAL_BW ([…], time 7 day): 287 g
TERMINAL_BW ([…], time 14 day): 331.7 g
TERMINAL_BW ([…], time 28 day): 380.1 g
APTT ([…], time 7 day): 21.9 s
Bas ([…], time 7 day): 0%
Eos ([…], time 7 day): 1%
Fbg ([…], time 7 day): 314.8 mg/dL
Hb ([…], time 7 day): 13.4 g/dL
Ht ([…], time 7 day): 39.9%
Lym ([…], time 7 day): 76.8%
MCH ([…], time 7 day): 21 pg
MCHC ([…], time 7 day): 33.6%
MCV ([…], time 7 day): 62.6 fL
Mono ([…], time 7 day): 2.8%
Neu ([…], time 7 day): 18.6%
PT ([…], time 7 day): 15 s
Plat ([…], time 7 day): 122.9 x10_4/uL
RBC ([…], time 7 day): 638.8 x10_4/ul
Ret ([…], time 7 day): 6.6%
WBC ([…], time 7 day): 106.6 x10_2/uL
APTT ([…], time 14 day): 22.2 s
Bas ([…], time 14 day): 0%
Eos ([…], time 14 day): 1%
Fbg ([…], time 14 day): 341.6 mg/dL
Hb ([…], time 14 day): 14.1 g/dL
Ht ([…], time 14 day): 42.1%
Lym ([…], time 14 day): 71.2%
MCH ([…], time 14 day): 20 pg
MCHC ([…], time 14 day): 33.6%
MCV ([…], time 14 day): 59.7 fL
Mono ([…], time 14 day): 3.4%
Neu ([…], time 14 day): 22.8%
PT ([…], time 14 day): 15.1 s
Plat ([…], time 14 day): 117.8 x10_4/uL
RBC ([…], time 14 day): 706.4 x10_4/ul
Ret ([…], time 14 day): 5.2%
WBC ([…], time 14 day): 121.3 x10_2/uL
APTT ([…], time 28 day): 23.2 s
Bas ([…], time 28 day): 0%
Eos ([…], time 28 day): 1%
Fbg ([…], time 28 day): 339.2 mg/dL
Hb ([…], time 28 day): 14.3 g/dL
Ht ([…], time 28 day): 43.4%
Lym ([…], time 28 day): 77.6%
MCH ([…], time 28 day): 18.5 pg
MCHC ([…], time 28 day): 33%
MCV ([…], time 28 day): 56.1 fL
Mono ([…], time 28 day): 2.8%
Neu ([…], time 28 day): 17%
PT ([…], time 28 day): 15.8 s
Plat ([…], time 28 day): 100.4 x10_4/uL
RBC ([…], time 28 day): 773 x10_4/ul
Ret ([…], time 28 day): 2.7%
WBC ([…], time 28 day): 122.5 x10_2/uL
KIDNEY_L ([…], time 7 day): 1.2 g
KIDNEY_R ([…], time 7 day): 1.2 g
KIDNEY_TOTAL ([…], time 7 day): 2.4 g
KIDNEY_L ([…], time 14 day): 1.3 g
KIDNEY_R ([…], time 14 day): 1.3 g
KIDNEY_TOTAL ([…], time 14 day): 2.6 g
KIDNEY_L ([…], time 28 day): 1.4 g
KIDNEY_R ([…], time 28 day): 1.4 g
KIDNEY_TOTAL ([…], time 28 day): 2.8 g
LIVER ([…], time 7 day): 13.8 g
LIVER ([…], time 14 day): 14.4 g
LIVER ([…], time 28 day): 15.7 g
A/G ([…], time 7 day): 1.2
ALP ([…], time 7 day): 1633.8 IU/L
ALT ([…], time 7 day): 45.4 IU/L
AST ([…], time 7 day): 68.8 IU/L
BUN ([…], time 7 day): 17.2 mg/dL
CRE ([…], time 7 day): 0.2 mg/dL
Ca ([…], time 7 day): 10.8 mg/dL
Cl ([…], time 7 day): 106 meq/L
DBIL ([…], time 7 day): 0 mg/dL
GLC ([…], time 7 day): 197.4 mg/dL
IP ([…], time 7 day): 7.2 mg/dL
K ([…], time 7 day): 4 meq/L
LDH ([…], time 7 day): 173.4 IU/L
Na ([…], time 7 day): 141.4 meq/L
PL ([…], time 7 day): 149 mg/dL
RALB ([…], time 7 day): 3.1 g/dL
TBIL ([…], time 7 day): 0 mg/dL
TC ([…], time 7 day): 73.4 mg/dL
TG ([…], time 7 day): 123.2 mg/dL
TP ([…], time 7 day): 5.6 g/dL
gamma-GTP ([…], time 7 day): 2.2 IU/L
A/G ([…], time 14 day): 1.1
ALP ([…], time 14 day): 1378.8 IU/L
ALT ([…], time 14 day): 48 IU/L
AST ([…], time 14 day): 75.4 IU/L
BUN ([…], time 14 day): 18.6 mg/dL
CRE ([…], time 14 day): 0.2 mg/dL
Ca ([…], time 14 day): 10.5 mg/dL
Cl ([…], time 14 day): 106.6 meq/L
DBIL ([…], time 14 day): 0 mg/dL
GLC ([…], time 14 day): 191 mg/dL
IP ([…], time 14 day): 7.2 mg/dL
K ([…], time 14 day): 4 meq/L
LDH ([…], time 14 day): 166 IU/L
Na ([…], time 14 day): 142.6 meq/L
PL ([…], time 14 day): 156 mg/dL
RALB ([…], time 14 day): 3.1 g/dL
TBIL ([…], time 14 day): 0.014 mg/dL
TC ([…], time 14 day): 81.8 mg/dL
TG ([…], time 14 day): 109.8 mg/dL
TP ([…], time 14 day): 5.8 g/dL
gamma-GTP ([…], time 14 day): 2.4 IU/L
A/G ([…], time 28 day): 1.1
ALP ([…], time 28 day): 1042.8 IU/L
ALT ([…], time 28 day): 40.4 IU/L
AST ([…], time 28 day): 66.4 IU/L
BUN ([…], time 28 day): 18.2 mg/dL
CRE ([…], time 28 day): 0.2 mg/dL
Ca ([…], time 28 day): 10.1 mg/dL
Cl ([…], time 28 day): 106.2 meq/L
DBIL ([…], time 28 day): 0 mg/dL
GLC ([…], time 28 day): 191.4 mg/dL
IP ([…], time 28 day): 6 mg/dL
K ([…], time 28 day): 3.9 meq/L
LDH ([…], time 28 day): 120 IU/L
Na ([…], time 28 day): 141.8 meq/L
PL ([…], time 28 day): 129.8 mg/dL
RALB ([…], time 28 day): 3.1 g/dL
TBIL ([…], time 28 day): 0.01 mg/dL
TC ([…], time 28 day): 65.2 mg/dL
TG ([…], time 28 day): 119.8 mg/dL
TP ([…], time 28 day): 5.9 g/dL
gamma-GTP ([…], time 28 day): 2 IU/L
